Test results: patent publication US10232023B2, “Methods for treatment of and prophylaxis against inflammatory disorders” (THE UNIVERSITY OF UTAH RESEARCH FOUNDATION, priority 2013, dated 2019)

Tests used:
human PMNs and platelets = experiment: Platelet/PMN aggregation; type: cell-based; conditions: LPS-stimulated PMNs mixed with thrombin-stimulated platelets
Description: Using protocols modified from Saboor et al., […] Med Sci, 2013, 20: 62-66, human PMNs (2×10^6 cells/mL) were isolated and incubated with […] or SCR (0.1-10 ng/ml) for 1 hour prior to addition of freshly isolated human platelet at a ratio of 100:1 for another 15 minute incubation. After this period, the cells (PMNs and platelets) were stimulated with thrombin (0.1 IU/mL) or control M-199 media for 1 hour. The cells were stained for 20 minutes with the following primary monoclonal antibodies: PE-conjugated CD41 and FITC-conjugated CD16. Isotype and fluorochrome matched control antibodies were used. Flow cytometry was performed using BECTON-DICKINSON FACSCAN and CELLQUEST software.

human platelets = experiment: Platelet activation (P-selectin expression); type: cell-based; conditions: given alone or following thrombin stimulation (0.1 IU/mL)
Description: Using protocols modified from van Velzen, et al., Thromb Res, 2012, 130: 92-98, human platelets (1×10^8 cells/mL) were incubated with CRISPP or SCR (0.1-10 ng/ml) for 1 hour followed by stimulation with thrombin (0.1 IU/mL) or control M-199 media for 15 minutes. The cells were prepared for FACS analysis with the following primary, monoclonal antibodies for 20 minutes: PE-conjugated CD41a (platelet-specific marker) and FITC-conjugated CD62P (P-selectin). Isotype and fluorochrome matched control antibodies were used. After incubation at room temperature in the dark, the cells were lysed with FACS lysis buffer and analyzed by flow cytometry (BECTON-DICKINSON FACSCAN, CELLQUEST software).

PMA-stimulated PMNs = experiment: Nuclear decondensation (nuclear area) assay; type: cell-based, human; conditions: CRISPP 1 nM, SCR 1 nM, Sivelestat 200 nM; PMA 20 nM, 2 hours; vs PMA alone
Description: Using techniques modified from Papayannopoulos et al., J Cell Biol, 2010, 191: 677-691, nuclear area assays were used for PMA-stimulated PMNs as a surrogate for NET formation. PMNs were stimulated with PMA (20 nM) for 2 hours and then visualized via live cell imaging with a cell permeable DNA dye. Images from 5 randomly selected high power fields were captured and the nuclear area of all PMNs on each visual field was quantitated using IMAGEJ software. Nuclear areas were compared for PMNs stimulated with PMA with PMNs pre-incubated with CRISPP (1 nM), SCR (1 nM), or the NE inhibitor Sivelestat (200 nM). […] Next, immunocytochemical experiments designed to see whether CRISPP is taken up by human PMNs were performed. The CRISPP-F and SCR-F peptides and FLAG-tag specific primary antibodies were used to assess cellular location. […] CRISPP can inhibit nuclear chromatin decondensation, which is consistent with the selective inhibition of NET formation by CRISPP and nNIF. This process may involve inhibition of NE activity.
PMNs were isolated and resuspended to 2×10^6 cells/mL in M-199 media. […] 5 randomly selected high power visual fields per sample were captured via confocal microscopy and analyzed for nuclear area using the cell-permeable, fluorescent DNA dye SYTO Green. The nuclear pixel areas of >100 individual cells per high power field were determined using IMAGE-J software (NIH).

[1] = tested on: C57BL6 mice, intraperitoneal injection of LPS; experiment: Survival after intraperitoneal LPS; type: in vivo, mouse; conditions: LPS 20 mg/kg IP; 10 mcg/kg/dose IP, 1 hour prior and 6 hours after; vs LPS+scrambled peptide, p=0.02
Description: FIG. 10A is a graph tracking survival of C57BL6 mice in various treatment arms following intraperitoneal injection of LPS (20 mg/kg). CRISPP-treated mice (10 mcg/kg/dose) received 2 doses intraperitoneally; one given 1 hour prior to infection and one dose given 6 hours after infection. The same dose, delivery route, and schedule were followed for the scrambled peptide control mice. Six mice were assessed in both groups.
Survival of outbred Swiss mice was tracked in various treatment arms following intraperitoneal injection of either LPS (20 mg/kg) or E. coli (4×10^7 bacteria), as shown in FIGS. 10A and 10B. […] Six mice were assessed in both groups: LPS+CRISPP and LPS+scrambled control peptide. […] Ten mice were assessed in each group: no treatment, E. coli+CRISPP, and E. coli+scrambled control peptide. […] Referring to FIG. 11, CRISPP was also evaluated in a murine model of polymicrobial infection caused by cecal ligation and puncture (CL/P). […] Ten mice were assessed in each of the CL/P groups. […]
Animals were treated with CRISPP (10 mg/kg), nNIF (10 mg/kg), or SCR (10 mg/kg) by i.p. injection 1 hour prior to and 6 hours after infection (E. coli, 4.5×10^7 cfu/mouse, i.p. injection) or stimulation (LPS, 25 mg/kg, i.p. injection). […] Survival was assessed over 6 days at 6 hour to 12 hour intervals.

Cancer-Associated SCM-Recognition, Immune Defense Suppression, and Serine Protease Protection Peptide [CRISPP, nNIF-related peptide (nNRP)]
Platelet/PMN association (flow cytometry) (human PMNs and platelets): did not alter
Platelet p-selectin expression (human platelets): did not alter
Nuclear area of PMA-stimulated PMNs (PMA-stimulated PMNs): significant decrease in nuclear area
Survival [1]: statistically greater
